Experimental data reported in ChEMBL document CHEMBL3044695, “Synthesis and insect antifeedant activity of C-2 and C-5 substituted perhydrofurofurans and 3a-hydroxy-perhydrofurofurans (Part I)” (Tetrahedron, 1999).

How the values were obtained:
Pieris brassicae [1] = assay: Antifeedant activity against fifth-instar larvae of Pieris brassicae on cabbage leaf discs at 5 mM measured upto 3 hr time period by two-choice bioassay; type: functional
Pieris brassicae [2] = assay: Post-ingestive toxicity in Pieris brassicae on cabbage leaf discs at 5 mM; type: organism-based; details: in vivo, po, 5000 µM
Pieris brassicae [3] = assay: Antifeedant activity against fifth-instar larvae of Pieris brassicae on cabbage leaf discs at 5 mM measured 1.5 to 3 hr time period by no-choice bioassay; type: functional
Pieris brassicae [4] = assay: Antifeedant activity against fifth-instar larvae of Pieris brassicae on cabbage leaf discs at 5 mM measured 0 to 1.5 hr time period by no-choice bioassay; type: functional

Compound	AFI (Pieris brassicae [1])	Activity (Pieris brassicae [2])	AFI (Pieris brassicae [3])	AFI (Pieris brassicae [4])
O[C@]12CCO[C@H]1O[C@H](C1CCCCC1)C2	24%			
O=C1C[C@]2(O)C[C@@H](C3CCCCC3)O[C@@H]2O1	9%			
CC(=O)OC1C[C@]2(O)C[C@@H](C3CCCCC3)O[C@@H]2O1 (some centres undefined)	9%			
OC1C[C@]2(O)C[C@@H](C3CCCCC3)O[C@@H]2O1 (some centres undefined)	16%			
COC1C[C@]2(O)C[C@@H](C3CCCCC3)O[C@@H]2O1 (some centres undefined)	18%			
O[C@]12C=CO[C@H]1O[C@H](C1CCCCC1)C2	54%			
CCCCCCCCCCC1C[C@H]2CC(=O)O[C@H]2O1 (some centres undefined)	41%			
C1=C[C@@H]2CC(c3ccccc3)O[C@@H]2O1 (some centres undefined)	11%	Non-toxic	-2.6%	-1.7%
CCCCCCC1C[C@H]2CC(=O)O[C@H]2O1 (some centres undefined)	-11%			
CCCCCCC1C[C@H]2C=CO[C@H]2O1 (some centres undefined)	11%	Non-toxic	10.6%	20.3%
O=C1C[C@H]2CC(C3CCCCC3)O[C@H]2O1 (some centres undefined)	10%	Non-toxic	13.9%	22.4%
CC(=O)OC1C[C@H]2CC(C3CCCCC3)O[C@H]2O1 (some centres undefined)	16%	Non-toxic	3%	16.7%
CCOC1C[C@H]2CC(C3CCCCC3)O[C@H]2O1 (some centres undefined)	20%	Non-toxic	9.5%	18.3%
C1CCC(C2C[C@@H]3CCO[C@@H]3O2)CC1 (some centres undefined)	26%	Non-toxic	5.4%	6.7%
OC1C[C@H]2CC(C3CCCCC3)O[C@H]2O1 (some centres undefined)	10%	Non-toxic	15.9%	18.6%
C1=C[C@@H]2CC(C3CCCCC3)O[C@@H]2O1 (some centres undefined)	-2.5%	Non-toxic	-12.3%	-9.3%
CCCCCCCCCC[C@@H]1C[C@H]2CC(=O)O[C@H]2O1 (racemic)	10%			
O=C1C[C@@H]2C[C@@H](c3ccccc3)O[C@@H]2O1 (racemic)	18%			
O=C1C[C@@H]2C[C@H](C3CCCCC3)O[C@@H]2O1 (relative stereo)	24%			
O=C1C[C@H]2C[C@@H](C3CCCCC3)O[C@@H]2O1 (relative stereo)	9%			
